# In patent US20220372585A1, “Sensors for Aromatic Compounds and Methods of Making and Using Same” (Washington University, priority 2021, published 2022):
# pEC50: −log10 of the molar value. “Also recorded” adds a separate entry of the source. Where two headings read alike, the source gives them in different places.
# Tests used:
# [1] = system: wild-type TynA and A81L FeaR; assay: microbe, parasite or virus in culture; type: cell-based, E. coli MG1655; details: A81L FeaR
# Experimental: (§1) Flow cytometry was performed as previously described. […] Cytometry data was gated by forward and side scatter.
# [2] = system: wild-type TynA with A81P FeaR; assay: microbe, parasite or virus in culture; type: cell-based, E. coli MG1655; details: A81P FeaR; 5 h and 24 h; FIG. 25A-B
# Experimental: as §1
# [3] = system: TynA-KP with FeaR-KA I109N; assay: GFP fluorescence from PtynA-MG with TynA-KP and FeaR-KA I109N; type: cell-based, Klebsiella aerogenes
# Text: FIG. 32. […] Sensor system with PtynA-MG, TynA-KP and FeaR-KA was chosen as the wild type (WT) for further directed evolution. TynA-KP was employed to reduce the possible interference from DA during evolution processes. Values and error bars are the average and standard deviation of biological triplicate, respectively.
# FIG. 33A-FIG. 33B. […] The expression of PtynA-MG was regulated by the TynA-KP with FeaR-KA I109N mutant. Points represent experimental data while lines represent the fitted curves. […] Values and error bars are the average and standard deviation of biological triplicate, respectively.
# FeaR (TynA inactivated) = details: 0.5 mM, FIG. 3C
# Experimental: (§2) To develop sensors for aromatic amines, the TynA-FeaR system was first characterized in EcN. A sensor plasmid was constructed, which consisted of constitutively expressed TynA and FeaR from E. coli MG1655, and a reporter plasmid, which consisted of GFP under the control of PtynA (see e.g., FIG. 3B). […] Next, the sensitivity and selectivity to different ligands was characterized.
# For fluorescence-based quantification, single colonies were transferred to 5 mL LB medium (VWR, Radnor, Pa., USA) in 14 mL round bottom tubes and incubated overnight at 250 rpm and 37° C. […]
# Flow cytometry was performed as previously described. […] The fluorescence of the samples was measured using a Millipore Guava EasyCyte High Throughput flow cytometer with a 488 nm excitation laser and 512/18 nm emission filter. […] FlowJo (TreeStar Inc.) was used to obtain the arithmetic mean of the fluorescence distribution. The averages of the arithmetic means were calculated from three biological replicates. The average fluorescence of the non-fluorescent wild-type cell was subtracted from each sample to obtain the final fluorescence (au) values (Equation 2). To obtain the relative fluorescence in FIG. 6A-FIG. 6C, fluorescence values for each variant were normalized to the fluorescence of the wild-type sensor using Equation 3.
# TynA-FeaR system = assay: microbe, parasite or virus in culture; details: for pEC50: read-out: KA (half maximal constant); for Fmax / Fmin / n (Hill coefficient): wild-type TynA and FeaR, pCX008, pHJY022
# Experimental: as §2
# For fluorescence-based quantification, single colonies were transferred to 5 mL LB medium (VWR, Radnor, Pa., USA) in 14 mL round bottom tubes and incubated overnight at 250 rpm and 37° C. Unless otherwise specified, experimental cultures were prepared by diluting overnight cultures 100× into 0.6 mL M9 minimal medium supplemented with 1 mM MgSO4, […]), and 2% w/v glycerol as well as the respective ligands (DA, PEA, Tyra, and Trypta) in 2 mL 96-deep well plates. Cultures were grown for 24 h at 37° C. and 250 rpm. After 5 h and 24 h of incubation, samples were obtained from the cultures for flow cytometry analysis.
# Flow cytometry was performed as previously described. Culture samples were collected and diluted to a final OD600 of ˜0.005-0.01 in […] filtered phosphate-buffered saline supplemented with 2 mg/ml kanamycin in 96-well assay microplates (U-bottom, REF-353910 from BD Biosciences, San Jose, Calif., USA). The fluorescence of the samples was measured using a Millipore Guava EasyCyte High Throughput flow cytometer with a 488 nm excitation laser and 512/18 nm emission filter. Cytometry data was gated by forward and side scatter. FlowJo (TreeStar Inc.) was used to obtain the arithmetic mean of the fluorescence distribution. The averages of the arithmetic means were calculated from three biological replicates. The average fluorescence of the non-fluorescent wild-type cell was subtracted from each sample to obtain the final fluorescence (au) values (Equation 2). To obtain the relative fluorescence in FIG. 6A-FIG. 6C, fluorescence values for each variant were normalized to the fluorescence of the wild-type sensor using Equation 3.
# The Hill equation (Equations 4 and 5) was used to fit lines to the fluorescence data. The model was fit to the experimentally collected data by minimizing the root mean square error (RMSE; Equation 6).
# [4] = system: wild-type TynA with W110S FeaR; type: cell-based, E. coli MG1655; details: W110S FeaR; 24 h; FIG. 28C
# Experimental: as §1
# [5] = system: wild-type TynA with W110C FeaR; type: cell-based, E. coli MG1655; details: W110C FeaR; 24 h; FIG. 28D
# Experimental: as §1
# [6] = system: G415H TynA with wild-type FeaR; type: cell-based, E. coli MG1655; details: G415H
# Experimental: as §1
# [7] = system: G494S TynA with wild-type FeaR; type: cell-based, E. coli MG1655; details: G494S TynA, wild-type FeaR; 5 h and 24 h; FIG. 18A-B
# Experimental: as §1
# [8] = system: G494S TynA with A81T FeaR; type: cell-based, E. coli MG1655; details: G494S*
# Experimental: as §1
# [9] = system: wild-type TynA with L108T FeaR; type: cell-based, E. coli MG1655; details: L108T FeaR; 24 h; FIG. 28B
# Experimental: as §1
# G494S TynA and A81S FeaR = type: cell-based, E. coli MG1655; details: G494S TynA and A81S FeaR; 5 h and 24 h; FIG. 23A-B
# Experimental: as §1
# [10] = system: wild-type TynA with A81T FeaR; type: cell-based, E. coli MG1655; details: wild-type TynA; 1 mM, 24 h; FIG. 21
# Experimental: as §1
# [11] = system: wild-type TynA with M83Q FeaR; type: cell-based, E. coli MG1655; details: M83Q FeaR; 24 h; FIG. 28A
# Experimental: as §1
structure (smiles),measurement,setting,value
"NCCc1ccc(O)c(O)c1 [Dopamine, dopamine]",response,"[1]; 5 h, FIG. 24",lack of response
same,response,"[1]; 24 h, FIG. 5C",lack of response
same,response,[2],lack of response
same,response,"[3]; FeaR-KA I109N, 5 h and 24 h, FIG. 33A-B",lack of response
same,induction of fluorescence,"[3]; I109N variant, 0.5 mM, 24 h, FIG. 32",not
same,induction of PtynA,FeaR (TynA inactivated),eliminated
same,fold increase in GFP expression,"TynA-FeaR system; 0.5 mM, in the presence of TynA, FIG. 3C",410 fold
same,pEC50,"TynA-FeaR system; Escherichia coli, 5 h",4.55
same,pEC50,"TynA-FeaR system; Escherichia coli, 24 h",4.17
same,fold induction at 1250 µM,"TynA-FeaR system; Escherichia coli, read-out: fold induction of the reporter",~900
same,Fmax,"TynA-FeaR system; FIG. 3D, 24 h induction",881
same,Fmin,"TynA-FeaR system; FIG. 3D, 24 h induction",0.1
same,n (Hill coefficient),"TynA-FeaR system; FIG. 3D, 24 h induction",3
same,Fmax,"TynA-FeaR system; FIG. 14, 5 h induction",258
same,Fmin,"TynA-FeaR system; FIG. 14, 5 h induction",4.4
same,n (Hill coefficient),"TynA-FeaR system; FIG. 14, 5 h induction",1.5
same,response,[4],lack of response
same,response,[5],lack of response
same,response,"[6]; 5 h, FIG. 17B",lack of response
same,response,"[6]; 24 h, FIG. 4D, listed as DA",lack of response; also recorded: minimal response
same,response,[7],lack of response
same,response,"[8]; 5 h, FIG. 17A",lack of response
same,response,"[8]; 24 h, FIG. 4C",lack of response
same,response,[9],lack of response
same,response,G494S TynA and A81S FeaR,lack of response
same,effect of the A81T FeaR mutation on the response of the sensor,[10],significantly reduced
same,response,[11],lack of response
